Measured values as given in patent US20030166656A1, “Therapeutic or preventive medicines for mood disorders or anxiety disorders” (priority 2003, published 2003).

How the values were obtained:
male SD rats = test: Elevated plus-maze test in rats (antianxiety effect); type: in vivo, rat; conditions: for antianxiety effect: overall conclusion in words, elevated plus-maze test
From the text: (§1) The isoquinoline derivative rep-resented by formula (I) has a marked effect in the forced swim test, which is the animal model for mood disorder, and in the elevated plus-maze test, which is the animal model for anxiety disorder. Thus, the isoquinoline derivative can be used as a drug for curing or preventing mood disorder or anxiety disorder of mammal and, in particular, human beings. It may also be used in manufacturing of a medicament for curing or preventing mood disorder or anxiety disorder. The evaluation using the above-described animal models can be conducted by a method described in published references [Nature vol. 266, 730 (1977) or Jpn. J. Psychopharmacol vol. 15, 125 (1995)], but the method is not limited to this.
Assessment of Antianxiety Effect by the Elevated Plus-Maze Test in Rats
The experiment was conducted on male SD rats. In the elevated plus-maze test, the elevated plus-maze (manufactured by NeuroScience, Inc.) consisting of closed arms and open arms was used. In the experiment, a rat was placed on an open arm 30 minutes after the drug administration (subcutaneous administration), and the number of entries to the open and closed arms and the time spent in the open arms were measured. The test was conducted for 3 minutes. The rat was assumed to have made entries when all four legs have entered the arm. The ratio of the time spent in the open arms and the ratio of the entries to the open arms were calculated according to the following equations:
Ratio of the time spent in the open arms (%)={(time spent in the open arms)/(total time)}×100
Ratio of the entries to the open arms (%)={(number of entries to the open arms)/(total number of entries)}×100
The vertical axis on the left indicates the ratio of the time spent in the open arms (%) and the ratio of the entries to the open arms (%). The vertical axis on the right indicates the total number of entries. The horizontal axis indicates a control group and treatment groups. Open columns indicate the ratio of the time spent in the open arms (%) and hatched columns indicate the ratio of the entries to the open arms (%). Closed circles indicate the total number of entries. All data are indicated by average ±standard error. In a significance test, the difference was assumed to be significant at a significance level of 5% or less by Dunnett's multiple comparison. In the test, the drug is assumed to have an antianxiety effect when there are an increase in time spent on open arms and an increase in ratio of entries to open arms under administration.

male ICR mice = test: Forced swim test in mice (antidepressant effect); type: in vivo, mouse; conditions: for antidepressant effect: overall conclusion in words, forced swim test
From the text: as §1
Assessment of antidepressant effect by the forced swim test in mice
In the experiment, male ICR mice were used. In the forced swim test, the tank for forced swim used was a transparent cylindrical tank made of plastic (inner diameter: 10 cm, height: 30 cm), and water at 25° C. was contained up to 14 cm in height. A mouse was placed in water, and its swimming time during 2 to 6 minutes after placement was measured. The drug was subcutaneously administered 30 minutes before testing. The vertical axis indicates the swimming time (sec) during the measurement time (4 min). The open column indicates a saline-treated group and the hatched columns indicate Compound 1 treatment groups. All data are indicated by average ±standard error. In a significance test, the difference was assumed to be significant at a significance level of 5% or less by Dunnett's multiple comparison. In the test, the drug is assumed to have an antidepressant effect when there is an increase in swimming time under administration.

[1] = FIG. 1, treatment groups vs saline-treated control, s.c., Dunnett's multiple comparison, 5% level

Compound: Cc1c2c(nc3ccccc13)C[C@@]1(c3cccc(O)c3)CCN(C)C[C@@H]1C2 (relative stereo) [Compound 3, 2-methyl-4aα-(3-hydroxyphenyl)-11-methyl-1,2,3,4,4a,5,12,12aβ-octahydro-quinolino [2,3-g]isoquinoline]
- antianxiety effect (male SD rats): significant antianxiety effects
- antidepressant effect (male ICR mice): significant antidepressant effect

Compound: CN1CC[C@]2(c3cccc(O)c3)Cc3nc4ccccc4cc3C[C@@H]2C1 [Compound 1, (4aS,12aS)-2-methyl-4a-(3-hydroxyphenyl)-1,2,3,4,4a,5,12,12a-octahydroquinolino [2,3-g]isoquinoline]
- ratio of the entries to open arms (male SD rats; [1]): dose-dependent significant increase
- time spent in open arms (male SD rats; [1]): dose-dependent significant increase
- antianxiety effect (male SD rats): confirmed to have an antianxiety effect
- swimming time (male ICR mice; FIG. 2, treatment groups vs saline-treated control, s.c., Dunnett's multiple comparison, 5% level): dose-dependent significant increase
- antidepressant effect (male ICR mice): confirmed to have an antidepressant effect

Compound: CN1CC[C@]2(c3cccc(O)c3)Cc3nc4ccccc4c(N)c3C[C@H]2C1 (relative stereo) [Compound 5, 2-methyl-4aα-(3-hydroxyphenyl)-11-amino-1,2,3,4,4a,5,12,12aβ-octahydro-quinolino,[2,3-g]isoquinoline]
- antianxiety effect (male SD rats): significant antianxiety effects
- antidepressant effect (male ICR mice): significant antidepressant effect

Compound: Oc1cccc([C@]23CCN(CCc4ccccc4)C[C@@H]2Cc2cc4ccccc4nc2C3)c1 (relative stereo) [Compound 6, 2-phenethyl-4aα-(3-hydroxyphenyl)-1,2,3,4,4a,5,12,12aβ-octahydro-quinolino [2,3-g]isoquinoline]
- antianxiety effect (male SD rats): significant antianxiety effects
- antidepressant effect (male ICR mice): significant antidepressant effect
